{
  "source": "patent US20240384250A1",
  "about": "“FIBROBLAST GROWTH FACTOR 23 MODULATING COMPOUNDS” (THE UAB RESEARCH FOUNDATION, priority 2021, published 2024)",
  "system": "FGF21 binding to FGFR isoforms 1c, 2c, 3c, 4",
  "assay": "Pull-down and plate binding of FGF21 to FGFR isoforms with sKL or heparin",
  "design": "species or system human",
  "protocol": "To study the interaction between Fc-tagged FGFR isoforms (Fc-FGFR), FGF isoforms, and sKL, immunoprecipitation studies were conducted. Protein A beads (6501, BioVision) and protein G beads (6511, BioVision) were used at 25 μl of a 50% stock slurry per sample in a total bead volume of 50 μl. Beads were washed 5× in activity buffer (50 mM Tris [pH 7.4], 200 mM NaCl, 0.01% Tween 20). Bead spin-down assays were all performed for 2 minutes at 5000 g. Beads were resuspended in 1 ml of activity buffer in a 1.5-ml snap cap tube. One microgram of Fc-FGFR1 to 4 was incubated with the beads for 1 hour on a bead rotator. Control samples were incubated with 2 μg of anti-FGF antibody instead of Fc-FGFR. […] Samples were analyzed using SDS-PAGE and Western blotting.\nProteins were coated on 96-well plates (MaxiSorp; 439454, Thermo Fisher Scientific), and proteins were added to wells in 100 μl of enzyme-linked immunosorbent assay (ELISA) coating buffer (E107, Bethyl Laboratories) with a lid placed overtop and incubated at 4° C. overnight. […] Reactions were stopped with ELISA stop solution (E115, Bethyl Laboratories) and analyzed using the Synergy HI plate reader (BioTek) at 450 nm wavelength. […] As a control to remove background absorbance values, wells were coated with an equal amount of BSA to match the amount of protein coated in experimental wells and treated the same as experimental wells. […]",
  "data": [
    {"substance": "heparin [reference compound]", "values": [
      {"measurement": "binding of FGF21 to any of the FGFR isoforms", "result": "does not mediate binding"}
    ]}
  ]
}
